Measured values as given in publication PMC7363796, “Blood pressure-lowering effects of a Bowman-Birk inhibitor and its derived peptides in normotensive and hypertensive rats” (Scientific Reports, 2020).
Where two headings read alike, the source gives them in different places. Where a SMILES comes first, the peptide text is derived from it. Bridges are numbered along the chain shown (N, C = ends).

B1: BTCI: Bowman-Birk protease inhibitor purified from Vigna unguiculata (Cowpea) seeds; small protein, 9071 Da, seven disulfide bonds (protein)
chain: SGHHEDSTDEASESSKPCCDRCECTKSIPPQCRCSDVRLNSCHSACKSCACTFSIPAQCFCGDINDFCYKPCKSSHSDDDDWN
modifications: seven intramolecular disulfide bonds; native protein purified from seeds (9071.6 Da)

Legend:
[1] = target: T1, angiotensin converting enzyme (ACE) (Oryctolagus cuniculus, UniProt P12822); assay: ACE inhibition assay with HHL substrate (Hayakari method); type: biochemical; settings: rabbit lung ACE; for inhibition at 100 µM: pH 8.3, read-out: Highest ACE-inhibitory value; for IC50: sodium phosphate pH 8.3, 37 °C, 10 min pre-incubation, 45 min reaction, absorbance 382 nm, non-linear fit, triplicate, read-out: IC50 against ACE
T1 construct: ACE stock solution was obtained from rabbit lung; from tissue; host or cells: rabbit lung
T1 sequence (P12822 34-1310): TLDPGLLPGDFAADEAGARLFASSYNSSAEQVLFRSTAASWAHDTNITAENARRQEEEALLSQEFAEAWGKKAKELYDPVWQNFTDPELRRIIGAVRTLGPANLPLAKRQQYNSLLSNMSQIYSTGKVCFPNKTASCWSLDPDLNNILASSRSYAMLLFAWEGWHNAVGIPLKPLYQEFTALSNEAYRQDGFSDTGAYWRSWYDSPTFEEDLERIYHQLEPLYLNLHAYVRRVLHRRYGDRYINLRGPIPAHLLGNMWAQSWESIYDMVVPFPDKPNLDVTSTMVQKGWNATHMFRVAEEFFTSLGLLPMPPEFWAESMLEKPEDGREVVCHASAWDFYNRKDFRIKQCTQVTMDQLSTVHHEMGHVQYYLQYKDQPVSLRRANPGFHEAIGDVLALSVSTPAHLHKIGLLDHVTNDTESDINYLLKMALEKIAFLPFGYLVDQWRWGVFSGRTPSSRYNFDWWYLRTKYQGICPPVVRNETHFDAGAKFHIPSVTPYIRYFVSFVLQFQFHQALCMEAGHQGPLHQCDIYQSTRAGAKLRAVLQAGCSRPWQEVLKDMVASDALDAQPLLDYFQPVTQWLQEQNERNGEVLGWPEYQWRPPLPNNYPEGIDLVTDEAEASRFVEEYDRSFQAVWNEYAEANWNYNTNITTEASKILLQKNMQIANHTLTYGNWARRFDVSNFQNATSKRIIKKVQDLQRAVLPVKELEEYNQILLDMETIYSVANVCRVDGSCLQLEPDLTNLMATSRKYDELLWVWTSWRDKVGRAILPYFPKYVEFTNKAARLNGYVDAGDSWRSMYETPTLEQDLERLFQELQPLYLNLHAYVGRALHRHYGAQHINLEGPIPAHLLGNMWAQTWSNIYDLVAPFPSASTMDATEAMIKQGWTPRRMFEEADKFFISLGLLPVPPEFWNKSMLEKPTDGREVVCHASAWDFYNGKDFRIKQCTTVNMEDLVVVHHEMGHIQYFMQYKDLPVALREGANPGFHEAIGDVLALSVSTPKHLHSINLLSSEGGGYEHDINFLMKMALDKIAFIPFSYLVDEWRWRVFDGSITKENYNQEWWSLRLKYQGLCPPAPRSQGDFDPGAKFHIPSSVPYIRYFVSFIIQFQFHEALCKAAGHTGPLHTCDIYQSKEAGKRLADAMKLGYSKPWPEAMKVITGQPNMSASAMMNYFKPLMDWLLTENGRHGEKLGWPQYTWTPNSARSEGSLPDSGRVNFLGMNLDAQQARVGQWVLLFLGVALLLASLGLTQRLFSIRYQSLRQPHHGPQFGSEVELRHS
Procedure: Inhibitory activities of peptides PepTry and PepChy and BTCI against ACE were performed according to Hayakari, et al. (1978) using the synthetic substrate hippuryl-L-histidyl-L-leucine (HHL)[71]. Briefly, ACE stock solution was obtained from rabbit lung in 10 mM sodium phosphate buffer, pH 8.3, and BTCI and peptides stock solutions were prepared in MilliQ water (m/v). Concentration of BTCI was estimated from spectrophotometric absorbance at 280 nm based A2801% = 8.23. Concentration of PepTry and PepChy were estimated according to Eq. 1. BTCI and peptides were diluted in 10 mM sodium phosphate buffer pH 8.3 to obtain concentrations ranging from 0 to 600 µM. Ten µL peptide solutions were pre-incubated with 10 µL of ACE containing 0.5 M NaCl at 37 °C for 10 min. […] The enzymatic reaction was terminated by adding a mixture containing 550 µL of 100 mM sodium phosphate pH 8.3 and 332.5 µL of 3% (m/v) 2,4,6-trichloro-s-triazine (TT) (in dioxane). The mixture was incubated for 5 min. at room temperature and then centrifuged at 1000 g for 10 min at 4 °C. The absorbance values of supernatants containing hippuric acid liberated from HHL were recorded at 382 nm using the Jasco Spectrophotometer V-530 (Jasco Analytical Instruments, Tokyo, Japan). IC50 values for peptides and BTCI were calculated from nonlinear regression curve of ACE residual activity (%) versus inhibitor concentration (µM) (BTCI, PepTry and PepChy) using Origin software (OriginLab Corporation, USA). The control was prepared containing only the substrate without enzyme solution. Assays were performed in triplicate.

[2] = target: T2, trypsin (Bos taurus, UniProt P00760); assay: Inhibition of trypsin, residual activity with BAPNA substrate; type: biochemical; settings: pH 8.2, from fitted inhibition curves (GRAFIT), read-out: Inhibition constant Ki against trypsin
T2 sequence (P00760 24-246): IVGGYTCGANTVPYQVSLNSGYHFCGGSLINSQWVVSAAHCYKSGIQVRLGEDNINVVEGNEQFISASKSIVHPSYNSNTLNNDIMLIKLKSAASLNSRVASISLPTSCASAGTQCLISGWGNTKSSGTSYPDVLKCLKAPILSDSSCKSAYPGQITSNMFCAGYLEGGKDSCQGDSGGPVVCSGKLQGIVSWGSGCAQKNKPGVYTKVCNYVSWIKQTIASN
Procedure: (§1) The inhibitory activities of BTCI, PepTry and PepChy against trypsin and chymotrypsin activities were assayed using the substrates Na-benzoyl-DL-arginine-p-nitroanilide (BAPNA) and n-glutaryl-L-phenylalanine-p-nitroanilide (GPNA), respectively (Sigma)[19],[39]. Enzymatic assays were performed in 50 mM Tris-HCl, CaCl2 20 mM pH 7.6 for chymotrypsin or pH 8.2 for trypsin. Forty μL of BTCI and PepTry (0 to 20 μM) and BTCI and PepChy (0 to 50 μM) were incubated with 40 μL of trypsin (2.57 µM) or chymotrypsin (28.60 µM), respectively, in a 96-well plate at room temperature for 15 minutes. Then, 200 μL BAPNA (0.064 mg/mL) or GPNA (0.8 mg/mL) were added. The reaction was stopped by addition of 30 μL 30% acetic acid (v/v). Enzymatic hydrolysis of the substrate was evaluated by recording the absorbance at 410 nm. The residual activities of the enzymes, in the presence of inhibitors, were estimated considering the free enzyme activity to be 100%. Inhibition constants of the enzyme-inhibitor complexes, Ki, were calculated from fitted inhibition curves[70] using the GRAFIT program version 3 (Erithacus Software, Horley, Surrey, United Kingdom).

[3] = target: T3, chymotrypsin (Bos taurus, UniProt P00766); assay: Inhibition of chymotrypsin, residual activity with GPNA substrate; type: biochemical; settings: pH 7.6, from fitted inhibition curves (GRAFIT), read-out: Inhibition constant Ki against chymotrypsin
Procedure: as §1

[4] = target: T3, chymotrypsin; settings: literature value; read-out: Inhibition constant Ki against chymotrypsin; cited from earlier work
Procedure: (§2) The inhibitory activities of BTCI and its derived peptides, PepTry and PepChy, were evaluated through the residual enzymatic activity of serine proteases trypsin and chymotrypsin in the presence of increasing concentrations of BTCI and its derived peptides (Fig. 2A–D). In the absence of BTCI and peptides, the proteases cleave BAPNA/GPNA substrates releasing the yellow-colored p-nitroanilide product corresponding to an enzymatic activity of 100%[39]. In the presence of BTCI and peptides, a gradual decay of the protease activities is observed. BTCI at approximately 6 µM and 40 µM inhibits trypsi ...

[5] = target: T2, trypsin; settings: literature value; read-out: Inhibition constant Ki against trypsin; cited from earlier work
Procedure: as §2

Molecule | inhibition at 100 µM [1] [%] | IC50 [1] [µM] | Ki [2] [µM] | Ki [3] [µM] | Ki [4] [µM] | Ki [5] [µM]
CC[C@H](C)[C@@H]1NC(=O)[C@H](CO)NC(=O)[C@H](CCCCN)NC(=O)[C@H]([C@@H](C)O)NC(=O)[C@@H](N)CSSC[C@@H](C(=O)O)NC(=O)[C@H](CCC(N)=O)NC(=O)[C@@H]2CCCN2C(=O)[C@@H]2CCCN2C1=O [PepTry] (H-CTKSIPPQC-OH; disulfide 1-9) | ~98 | 24.4 ± 1.1 | 0.119 | – | – | –
CC[C@H](C)[C@@H]1NC(=O)[C@H](CO)NC(=O)[C@H](Cc2ccccc2)NC(=O)[C@H]([C@@H](C)O)NC(=O)[C@@H](N)CSSC[C@@H](C(=O)O)NC(=O)[C@H](CCC(N)=O)NC(=O)[C@H](C)NC(=O)[C@@H]2CCCN2C1=O [PepChy] (H-CTFSIPAQC-OH; disulfide 1-9) | ~98 | 24.7 ± 1.1 | – | 121 | – | –
BTCI: Bowman-Birk protease inhibitor purified from Vigna unguiculata (Cowpea) seeds; small protein, 9071 Da, seven disulfide bonds | – | – | – | – | 0.115 | –
B1 | – | 54.6 ± 2.9 | – | – | – | 0.0059
